Assay results from PubChem BioAssay (NCI).
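Results reflect a 48-hour exposure of cells in 96-well plates to compound at five concentrations. TGI marks complete inhibition of growth.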

Tests used:
Experiment in all cases: NCI-60 cell line screen, 48 h
786-0 renal = system: 786-0 renal
A498 renal = system: A498 renal
A549 NSCLC = system: A549 NSCLC
ACHN renal = system: ACHN renal
CAKI-1 renal = system: CAKI-1 renal
CCRF-CEM leukemia = system: CCRF-CEM leukemia
COLO 205 colon = system: COLO 205 colon
DLD-1 colon = system: DLD-1 colon
DMS 114 small cell lung = system: DMS 114 small cell lung
DMS 273 small cell lung = system: DMS 273 small cell lung
EKVX NSCLC = system: EKVX NSCLC
HCC-2998 colon = system: HCC-2998 colon
HCT-116 colon = system: HCT-116 colon
HCT-15 colon = system: HCT-15 colon
HL-60(TB) leukemia = system: HL-60(TB) leukemia
HOP-18 NSCLC = system: HOP-18 NSCLC
HOP-62 NSCLC = system: HOP-62 NSCLC
HOP-92 NSCLC = system: HOP-92 NSCLC
HT29 colon = system: HT29 colon
IGROV1 ovarian = system: IGROV1 ovarian
K-562 leukemia = system: K-562 leukemia
KM12 colon = system: KM12 colon
KM20L2 colon = system: KM20L2 colon
LOX IMVI melanoma = system: LOX IMVI melanoma
LXFL 529 NSCLC = system: LXFL 529 NSCLC
M14 melanoma = system: M14 melanoma
M19-MEL melanoma = system: M19-MEL melanoma
MALME-3M melanoma = system: MALME-3M melanoma
MOLT-4 leukemia = system: MOLT-4 leukemia
NCI-H23 lung = system: NCI-H23 lung
NCI-H460 lung = system: NCI-H460 lung
NCI-H522 lung = system: NCI-H522 lung
OVCAR-3 ovarian = system: OVCAR-3 ovarian
OVCAR-4 ovarian = system: OVCAR-4 ovarian
OVCAR-5 ovarian = system: OVCAR-5 ovarian
OVCAR-8 ovarian = system: OVCAR-8 ovarian
RPMI-8226 leukemia = system: RPMI-8226 leukemia
RXF 393 renal = system: RXF 393 renal
SF-268 CNS = system: SF-268 CNS
SF-295 CNS = system: SF-295 CNS
SF-539 CNS = system: SF-539 CNS
SK-MEL-2 melanoma = system: SK-MEL-2 melanoma
SK-MEL-28 melanoma = system: SK-MEL-28 melanoma
SK-MEL-5 melanoma = system: SK-MEL-5 melanoma
SK-OV-3 ovarian = system: SK-OV-3 ovarian
SN12C renal = system: SN12C renal
SNB-19 CNS = system: SNB-19 CNS
SNB-75 CNS = system: SNB-75 CNS
SNB-78 CNS = system: SNB-78 CNS
SR leukemia = system: SR leukemia
SW-620 colon = system: SW-620 colon
TK-10 renal = system: TK-10 renal
U251 CNS = system: U251 CNS
UACC-257 melanoma = system: UACC-257 melanoma
UACC-62 melanoma = system: UACC-62 melanoma
UO-31 renal = system: UO-31 renal
XF 498 CNS = system: XF 498 CNS
NCI-H226 lung = system: NCI-H226 lung

`CN(C)CN(C)c1nc(N(C)C)nc(N(C)C)n1` showed a TGI (786-0 renal) greater than 100 µM, a TGI (A498 renal) greater than 100 µM and a TGI (A549 NSCLC) greater than 100 µM. For the same molecule, the TGI (ACHN renal) was greater than 100 µM, the TGI (CAKI-1 renal) was greater than 100 µM and the TGI (CCRF-CEM leukemia) was greater than 100 µM. The TGI (COLO 205 colon) was greater than 100 µM, the TGI (DLD-1 colon) was greater than 100 µM and the TGI (DMS 114 small cell lung) was greater than 100 µM. The TGI (DMS 273 small cell lung) was greater than 100 µM, the TGI (EKVX NSCLC) was greater than 100 µM and the TGI (HCC-2998 colon) was greater than 100 µM. For the same molecule, the TGI (HCT-116 colon) was greater than 100 µM, the TGI (HCT-15 colon) was greater than 100 µM and the TGI (HL-60(TB) leukemia) was greater than 100 µM. The TGI (HOP-18 NSCLC) was greater than 100 µM, the TGI (HOP-62 NSCLC) was greater than 100 µM and the TGI (HOP-92 NSCLC) was greater than 100 µM. For the same molecule, the TGI (HT29 colon) was greater than 100 µM, the TGI (IGROV1 ovarian) was greater than 100 µM and the TGI (K-562 leukemia) was greater than 100 µM. The TGI (KM12 colon) was greater than 100 µM, the TGI (KM20L2 colon) was greater than 100 µM and the TGI (LOX IMVI melanoma) was greater than 100 µM. The TGI (LXFL 529 NSCLC) was greater than 100 µM, the TGI (M14 melanoma) was greater than 100 µM and the TGI (M19-MEL melanoma) was greater than 100 µM. For the same molecule, the TGI (MALME-3M melanoma) was greater than 100 µM, the TGI (MOLT-4 leukemia) was greater than 100 µM and the TGI (NCI-H23 lung) was greater than 100 µM. For the same molecule, the TGI (NCI-H460 lung) was greater than 100 µM, the TGI (NCI-H522 lung) was greater than 100 µM and the TGI (OVCAR-3 ovarian) was greater than 100 µM. The TGI (OVCAR-4 ovarian) was greater than 100 µM, the TGI (OVCAR-5 ovarian) was greater than 100 µM and the TGI (OVCAR-8 ovarian) was greater than 100 µM. The TGI (RPMI-8226 leukemia) was greater than 100 µM, the TGI (RXF 393 renal) was greater than 100 µM and the TGI (SF-268 CNS) was greater than 100 µM. It also gave a TGI (SF-295 CNS) greater than 100 µM, a TGI (SF-539 CNS) greater than 100 µM and a TGI (SK-MEL-2 melanoma) greater than 100 µM. For the same molecule, the TGI (SK-MEL-28 melanoma) was greater than 100 µM, the TGI (SK-MEL-5 melanoma) was greater than 100 µM and the TGI (SK-OV-3 ovarian) was greater than 100 µM. For the same molecule, the TGI (SN12C renal) was greater than 100 µM, the TGI (SNB-19 CNS) was greater than 100 µM and the TGI (SNB-75 CNS) was greater than 100 µM. The TGI (SNB-78 CNS) was greater than 100 µM, the TGI (SR leukemia) was greater than 100 µM and the TGI (SW-620 colon) was greater than 100 µM. The TGI (TK-10 renal) was greater than 100 µM, the TGI (U251 CNS) was greater than 100 µM and the TGI (UACC-257 melanoma) was greater than 100 µM. For the same molecule, the TGI (UACC-62 melanoma) was greater than 100 µM, the TGI (UO-31 renal) was greater than 100 µM and the TGI (XF 498 CNS) was greater than 100 µM.

`NC(=O)C1C(=O)Oc2cccnc21` (configuration not stated) showed a TGI (786-0 renal) greater than 100 µM, a TGI (A549 NSCLC) greater than 100 µM and a TGI (ACHN renal) greater than 100 µM. It also gave a TGI (CCRF-CEM leukemia) greater than 100 µM, a TGI (COLO 205 colon) greater than 100 µM and a TGI (DLD-1 colon) greater than 100 µM. It also gave a TGI (DMS 114 small cell lung) greater than 100 µM, a TGI (DMS 273 small cell lung) greater than 100 µM and a TGI (EKVX NSCLC) greater than 100 µM. It also gave a TGI (HCT-116 colon) greater than 100 µM, a TGI (HCT-15 colon) greater than 100 µM and a TGI (HOP-18 NSCLC) greater than 100 µM. The TGI (HOP-62 NSCLC) was greater than 100 µM, the TGI (HT29 colon) was greater than 100 µM and the TGI (IGROV1 ovarian) was greater than 100 µM. The TGI (K-562 leukemia) was greater than 100 µM, the TGI (KM12 colon) was greater than 100 µM and the TGI (KM20L2 colon) was greater than 100 µM. The TGI (LOX IMVI melanoma) was greater than 100 µM, the TGI (M14 melanoma) was greater than 100 µM and the TGI (M19-MEL melanoma) was greater than 100 µM. It also gave a TGI (MALME-3M melanoma) greater than 100 µM, a TGI (MOLT-4 leukemia) greater than 100 µM and a TGI (NCI-H226 lung) greater than 100 µM. It also gave a TGI (NCI-H23 lung) greater than 100 µM, a TGI (NCI-H460 lung) greater than 100 µM and a TGI (NCI-H522 lung) greater than 100 µM. It also gave a TGI (OVCAR-3 ovarian) greater than 100 µM, a TGI (OVCAR-8 ovarian) greater than 100 µM and a TGI (RPMI-8226 leukemia) greater than 100 µM. It also gave a TGI (RXF 393 renal) greater than 100 µM, a TGI (SF-295 CNS) greater than 100 µM and a TGI (SF-539 CNS) greater than 100 µM. For the same molecule, the TGI (SK-MEL-28 melanoma) was greater than 100 µM, the TGI (SK-MEL-5 melanoma) was greater than 100 µM and the TGI (SK-OV-3 ovarian) was greater than 100 µM. For the same molecule, the TGI (SN12C renal) was greater than 100 µM, the TGI (SNB-19 CNS) was greater than 100 µM and the TGI (SNB-75 CNS) was greater than 100 µM. It also gave a TGI (SW-620 colon) greater than 100 µM, a TGI (TK-10 renal) greater than 100 µM and a TGI (U251 CNS) greater than 100 µM. For the same molecule, the TGI (UACC-257 melanoma) was greater than 100 µM, the TGI (UACC-62 melanoma) was greater than 100 µM and the TGI (UO-31 renal) was greater than 100 µM. It also gave a TGI (XF 498 CNS) greater than 100 µM.

With `O=C(/C=N/O)Nc1cccc(Cl)c1I` the TGI (786-0 renal) was greater than 100 µM, the TGI (A498 renal) was greater than 100 µM and the TGI (A549 NSCLC) was greater than 100 µM. It also gave a TGI (ACHN renal) greater than 100 µM, a TGI (CAKI-1 renal) greater than 100 µM and a TGI (CCRF-CEM leukemia) greater than 100 µM. For the same molecule, the TGI (COLO 205 colon) was greater than 100 µM, the TGI (DLD-1 colon) was greater than 100 µM and the TGI (DMS 114 small cell lung) was 79.2 µM. The TGI (DMS 273 small cell lung) was greater than 100 µM, the TGI (EKVX NSCLC) was 79.4 µM and the TGI (HCC-2998 colon) was greater than 100 µM. The TGI (HCT-116 colon) was greater than 100 µM, the TGI (HCT-15 colon) was greater than 100 µM and the TGI (HL-60(TB) leukemia) was greater than 100 µM. For the same molecule, the TGI (HOP-62 NSCLC) was greater than 100 µM, the TGI (HT29 colon) was greater than 100 µM and the TGI (IGROV1 ovarian) was greater than 100 µM. For the same molecule, the TGI (K-562 leukemia) was greater than 100 µM, the TGI (KM12 colon) was greater than 100 µM and the TGI (KM20L2 colon) was greater than 100 µM. It also gave a TGI (LOX IMVI melanoma) greater than 100 µM, a TGI (LXFL 529 NSCLC) greater than 100 µM and a TGI (M14 melanoma) greater than 100 µM. The TGI (M19-MEL melanoma) was greater than 100 µM, the TGI (MALME-3M melanoma) was greater than 100 µM and the TGI (MOLT-4 leukemia) was greater than 100 µM. For the same molecule, the TGI (NCI-H226 lung) was greater than 100 µM, the TGI (NCI-H23 lung) was greater than 100 µM and the TGI (NCI-H460 lung) was greater than 100 µM. For the same molecule, the TGI (NCI-H522 lung) was greater than 100 µM, the TGI (OVCAR-3 ovarian) was greater than 100 µM and the TGI (OVCAR-4 ovarian) was greater than 100 µM. The TGI (OVCAR-5 ovarian) was greater than 100 µM, the TGI (OVCAR-8 ovarian) was greater than 100 µM and the TGI (RPMI-8226 leukemia) was greater than 100 µM. It also gave a TGI (RXF 393 renal) of 74.9 µM, a TGI (SF-268 CNS) greater than 100 µM and a TGI (SF-295 CNS) greater than 100 µM. It also gave a TGI (SK-MEL-2 melanoma) greater than 100 µM, a TGI (SK-MEL-28 melanoma) greater than 100 µM and a TGI (SK-MEL-5 melanoma) greater than 100 µM. For the same molecule, the TGI (SK-OV-3 ovarian) was greater than 100 µM, the TGI (SN12C renal) was greater than 100 µM and the TGI (SNB-19 CNS) was greater than 100 µM. The TGI (SNB-75 CNS) was 43.4 µM, the TGI (SR leukemia) was greater than 100 µM and the TGI (SW-620 colon) was greater than 100 µM. The TGI (TK-10 renal) was greater than 100 µM, the TGI (U251 CNS) was greater than 100 µM and the TGI (UACC-257 melanoma) was greater than 100 µM. The TGI (UACC-62 melanoma) was greater than 100 µM, the TGI (UO-31 renal) was 78.3 µM and the TGI (XF 498 CNS) was greater than 100 µM.
